The results in this text go back to patent US12617783B2, “Heterocyclic GLP-1R agonists” (BIOMEA FUSION, INC., priority 2024, dated 2026).

T1 sequence (P43220 24-463): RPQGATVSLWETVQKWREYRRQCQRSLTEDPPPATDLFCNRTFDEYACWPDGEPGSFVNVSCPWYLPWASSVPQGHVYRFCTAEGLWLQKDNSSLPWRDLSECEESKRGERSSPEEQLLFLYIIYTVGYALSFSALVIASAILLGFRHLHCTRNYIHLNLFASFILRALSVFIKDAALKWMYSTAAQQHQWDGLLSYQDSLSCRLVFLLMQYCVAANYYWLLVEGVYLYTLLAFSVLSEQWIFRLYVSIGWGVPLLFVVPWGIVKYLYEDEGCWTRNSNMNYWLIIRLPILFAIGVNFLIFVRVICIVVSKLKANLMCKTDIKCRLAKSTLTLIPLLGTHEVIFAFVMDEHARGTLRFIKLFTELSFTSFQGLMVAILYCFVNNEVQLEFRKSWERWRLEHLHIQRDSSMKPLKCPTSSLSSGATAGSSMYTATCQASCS

One assay has as its target T1, human GLP-1R (Homo sapiens, UniProt P43220).
T1 construct: host or cells: HEK293
As to the kind of experiment: GLP-1R cAMP assay (Example B1a, HTRF, 30 min at room temperature). Type of assay: cell-based. As to conditions: cAMP accumulation in HEK293 expressing human GLP-1R, no BETP, 30 min room temperature (Method B1a, compounds ID 1-609), Table 1; read-out: EC50. In short, it runs like this: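 Competitive HTRF read-out of cAMP after 30 min room-temperature stimulation, BETP absent, of human GLP-1R-HEK293 cells (1,000/well) in HEPES buffer with 500 μM IBMX and 0.1% BSA. Activation normalised to GLP-1(7-37) positive control. EC50 from 4-parameter non-linear regression.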
Background: Changes in cAMP serve as a functional read-out for many G protein-coupled receptors.
Usually EC50 stands for the concentration giving half of the maximal effect. Consider `Cc1cc(-n2nc3c(c2-n2ccn(-c4ccc5c(cnn5C)c4)c2=O)[C@@H]2CC[C@H](C3)N2C(=O)c2cc3cc([C@H]4CCOC5(CC5)C4)ccc3n2[C@@]2(c3noc(=O)[nH]3)C[C@@H]2C)cc(C)c1F` [Compound 323, 3-[(1S,2S)-1-[2-[(1S,8R)-4-(4-fluoro-3,5-dimethyl-phenyl)-3-[3-(1-methylindazol-5-yl)-2-oxo-imidazol-1-yl]-4,5,11-triazatricyclo[6.2.1.02,6]undeca-2,5-diene-11-carbonyl]-5-[(7S)-4-oxaspiro[2.5]octan-7-yl]indol-1-yl]-2-methyl-cyclopropyl]-4H-1,2,4-oxadiazol-5-one], for which the EC50 was determined as 79.3 nM.
The same measure, in the same setting: then `Cc1cc(-n2nc3c(c2-n2ccn(-c4ccc5c(cnn5C)c4F)c2=O)[C@@H]2CC[C@H](C3)N2C(=O)c2cc3nc([C@@H]4CCOC(C)(C)C4)ccc3n2[C@@]2(c3noc(=O)[nH]3)C[C@@H]2C)cc(C)c1F` [Compound 218, 3-[(1S,2S)-1-[5-[(4R)-2,2-dimethyltetrahydropyran-4-yl]-2-[(1S,8R)-4-(4-fluoro-3,5-dimethyl-phenyl)-3-[3-(4-fluoro-1-methyl-indazol-5-yl)-2-oxo-imidazol-1-yl]-4,5,11-triazatricyclo[6.2.1.02,6]undeca-2,5-diene-11-carbonyl]pyrrolo[3,2-b]pyridin-1-yl]-2-methyl-cyclopropyl]-4H-1,2,4-oxadiazol-5-one], with over 10000 nM; and `Cc1cc(-n2nc3c(c2-n2ccn(-c4ccc5c(cnn5C)c4F)c2=O)[C@@H]2CC[C@H](C3)N2C(=O)c2cc3cc([C@@H]4CCOC5(CC5)C4)ccc3n2[C@]2(c3noc(=O)[nH]3)C[C@@H]2C)cc(C)c1F` [Compound 529, 3-[(1R,2S)-1-[2-[(1S,8R)-4-(4-fluoro-3,5-dimethyl-phenyl)-3-[3-(4-fluoro-1-methyl-indazol-5-yl)-2-oxo-imidazol-1-yl]-4,5,11-triazatricyclo[6.2.1.02,6]undeca-2,5-diene-11-carbonyl]-5-[(7R)-4-oxaspiro[2.5]octan-7-yl]indol-1-yl]-2-methyl-cyclopropyl]-4H-1,2,4-oxadiazol-5-one], with at least 10000 nM.
Still for that read-out and setting: then `Cc1cc(-n2nc3c(c2-n2ccn(-c4ccc5c(cnn5C)c4F)c2=O)[C@@H]2CC[C@H](C3)N2C(=O)c2cc3cc([C@H]4CCOC(C)(C)C4)ncc3n2[C@@]2(c3noc(=O)[nH]3)C[C@@H]2C)cc(C)c1F` [Compound 211, 3-((1S,2S)-1-(5-((S)-2,2-dimethyltetrahydro-2H-pyran-4-yl)-2-((4S,7R)-3-(3-(4-fluoro-1-methyl-1H-indazol-5-yl)-2-oxo-2,3-dihydro-1H-imidazol-1-yl)-2-(4-fluoro-3,5-dimethylphenyl)-2,4,5,6,7,8-hexahydro-4,7-epiminocyclohepta [c]pyrazole-9-carbonyl)-1H-pyrrolo[2,3-c]pyridin-1-yl)-2-methylcyclopropyl)-1,2,4-oxadiazol-5 (4H)-one], with 51 nM; and `CNC(=O)[C@]1(n2c(C(=O)N3[C@@H]4CC[C@H]3c3c(nn(-c5cc(C)c(F)c(C)c5)c3-n3ccn(-c5ccc6c(cnn6C)c5F)c3=O)C4)cc3cc([C@H]4CCOC(C)(C)C4)ccc32)C[C@@H]1C` [Compound 244, cis-(1S,2S)-1-[5-[(4S)-2,2-dimethyltetrahydropyran-4-yl]-2-[(1S,8R)-4-(4-fluoro-3,5-dimethyl-phenyl)-3-[3-(4-fluoro-1-methyl-indazol-5-yl)-2-oxo-imidazol-1-yl]-4,5,11-triazatricyclo[6.2.1.02,6]undeca-2,5-diene-11-carbonyl]indol-1-yl]-N,2-dimethyl-cyclopropanecarboxamide], with 390 nM; and `Cc1cc(-n2nc3c(c2-n2ccn(-c4ccc5c(cnn5C)c4F)c2=O)[C@@H]2CC[C@H](C3)N2C(=O)c2cc3c(=O)n([C@@H]4CCOC(C)(C)C4)ccc3n2[C@@]2(c3noc(=O)[nH]3)C[C@@H]2C)cc(C)c1F` [Compound 239, 3-[(1S,2S)-1-[5-[(4R)-2,2-dimethyltetrahydropyran-4-yl]-2-[(1S,8R)-4-(4-fluoro-3,5-dimethyl-phenyl)-3-[3-(4-fluoro-1-methyl-indazol-5-yl)-2-oxo-imidazol-1-yl]-4,5,11-triazatricyclo[6.2.1.02,6]undeca-2,5-diene-11-carbonyl]-4-oxo-pyrrolo[3,2-c]pyridin-1-yl]-2-methyl-cyclopropyl]-4H-1,2,4-oxadiazol-5-one], with over 10000 nM.
On the same count and under the same terms, in the case of `Cc1cc(-n2nc3c(c2-n2ccn(-c4ccc5nn(C(F)F)cc5c4F)c2=O)[C@@H]2CC[C@H](C3)N2C(=O)c2cc3cc([C@H]4CCOC(C)(C)C4)ccc3n2[C@@]2(c3noc(=O)[nH]3)C[C@@H]2C)cc(C)c1F` [Compound 309, 3-((1S,2S)-1-(2-((4S,7R)-3-(3-(2-(difluoromethyl)-4-fluoro-2H-indazol-5-yl)-2-oxo-2,3-dihydro-1H-imidazol-1-yl)-2-(4-fluoro-3,5-dimethylphenyl)-2,4,5,6,7,8-hexahydro-4,7-epiminocyclohepta [c]pyrazole-9-carbonyl)-5-((S)-2,2-dimethyltetrahydro-2H-pyran-4-yl)-1H-indol-1-yl)-2-methylcyclopropyl)-1,2,4-oxadiazol-5 (4H)-one] it was 721 nM; in that of `Cc1cc(-n2nc3c(c2-n2ccn(-c4cccc(C(N)=O)c4F)c2=O)[C@@H]2CC[C@H](C3)N2C(=O)c2cc3cc([C@H]4CCOC(C)(C)C4)ccc3n2[C@@]2(c3noc(=O)[nH]3)C[C@@H]2C)cc(C)c1F` [Compound 422, 3-[3-[(1S,8R)-11-[5-[(4S)-2,2-dimethyltetrahydropyran-4-yl]-1-[(1S,2S)-2-methyl-1-(5-oxo-4H-1,2,4-oxadiazol-3-yl)cyclopropyl]indole-2-carbonyl]-4-(4-fluoro-3,5-dimethyl-phenyl)-4,5,11-triazatricyclo[6.2.1.02,6]undeca-2,5-dien-3-yl]-2-oxo-imidazol-1-yl]-2-fluoro-benzamide], 303 nM; in that of `Cc1cc(-n2nc3c(c2-n2ccn(-c4ccc5c(cnn5C)c4F)c2=O)[C@@H]2COC[C@H](C3)N2C(=O)c2cc3cc(C4CCOC5(CC5)C4)ccc3n2[C@@]2(c3noc(=O)[nH]3)C[C@@H]2C)cc(C)c1F` (stereo partly drawn) [Compound 220, 3-((1S,2S)-1-(2-((4R,8S)-3-(3-(4-fluoro-1-methyl-1H-indazol-5-yl)-2-oxo-2,3-dihydro-1H-imidazol-1-yl)-2-(4-fluoro-3,5-dimethylphenyl)-2,4,5,7,8,9-hexahydro-4,8-epiminooxocino [5,4-c]pyrazole-10-carbonyl)-5-(4-oxaspiro[2.5]octan-7-yl)-1H-indol-1-yl)-2-methylcyclopropyl)-1,2,4-oxadiazol-5 (4H)-one], 795 nM.
Take `Cc1cc(-n2nc3c(c2-n2ccn(-c4ccc5c(cnn5C)c4F)c2=O)[C@@H]2CC[C@H](C3)N2C(=O)c2cc3ccc([C@H]4CCOC(C)(C)C4)cc3nc2[C@@]2(c3noc(=O)[nH]3)C[C@@H]2C)cc(C)c1F` [Compound 318, 3-[(1R,2S)-1-[7-[(4S)-2,2-dimethyltetrahydropyran-4-yl]-3-[(1S,8R)-4-(4-fluoro-3,5-dimethyl-phenyl)-3-[3-(4-fluoro-1-methyl-indazol-5-yl)-2-oxo-imidazol-1-yl]-4,5,11-triazatricyclo[6.2.1.02,6]undeca-2,5-diene-11-carbonyl]-2-quinolyl]-2-methyl-cyclopropyl]-4H-1,2,4-oxadiazol-5-one]: the EC50 amounted to 870 nM.
For `Cc1cc(-n2nc3c(c2-n2ccn(-c4ccc5c(cnn5C)c4F)c2=O)[C@@H]2CCC[C@H](C3)N2S(=O)(=O)c2cc3cc(C4CCOCC4)ccc3n2[C@@]2(c3noc(=O)[nH]3)C[C@@H]2C)cc(C)c1F` [Compound 533, 3-[(1S,2S)-1-[2-[[(1S,8R)-4-(4-fluoro-3,5-dimethyl-phenyl)-3-[3-(4-fluoro-1-methyl-indazol-5-yl)-2-oxo-imidazol-1-yl]-4,5,12-triazatricyclo[6.3.1.02,6]dodeca-2,5-dien-12-yl]sulfonyl]-5-tetrahydropyran-4-yl-indol-1-yl]-2-methyl-cyclopropyl]-4H-1,2,4-oxadiazol-5-one], the EC50 was 10400 nM.
On the same count and under the same terms, in the case of `Cc1cc(-n2nc3c(c2-n2ccn(-c4ccc5c(cnn5C)c4F)c2=O)C2CCCC(C3)N2C(=O)c2cc3cc([C@H]4CCOC(C)(C)C4)ccc3n2[C@@]2(c3noc(=O)[nH]3)C[C@@H]2C)cc(C)c1F` (stereo partly drawn) [Compound 427, 3-((1S,2S)-1-(5-((S)-2,2-dimethyltetrahydro-2H-pyran-4-yl)-2-(3-(3-(4-fluoro-1-methyl-1H-indazol-5-yl)-2-oxo-2,3-dihydro-1H-imidazol-1-yl)-2-(4-fluoro-3,5-dimethylphenyl)-4,5,6,7,8,9-hexahydro-2H-4,8-epiminocycloocta [c]pyrazole-10-carbonyl)-1H-indol-1-yl)-2-methylcyclopropyl)-1,2,4-oxadiazol-5 (4H)-one] it was 77.1 nM; in that of `Cc1cc(-n2nc3c(c2-n2ccn(-c4ccc5c(cnn5C)c4F)c2=O)[C@H]2CC[C@@H](C3)N2C(=O)c2cc3cc([C@H]4CCOC(C)(C)C4)ccc3n2[C@@]2(c3noc(=O)[nH]3)C[C@@H]2C)cc(C)c1F` [Compound 35, 3-((1S,2S)-1-(5-((S)-2,2-dimethyltetrahydro-2H-pyran-4-yl)-2-((4R,7S)-3-(3-(4-fluoro-1-methyl-1H-indazol-5-yl)-2-oxo-2,3-dihydro-1H-imidazol-1-yl)-2-(4-fluoro-3,5-dimethylphenyl)-2,4,5,6,7,8-hexahydro-4,7-epiminocyclohepta [c]pyrazole-9-carbonyl)-1H-indol-1-yl)-2-methylcyclopropyl)-1,2,4-oxadiazol-5 (4H)-one], at least 100000 nM.

The assay is the same for the next values; noted with them: text to Table 1d, bridge atoms configured out of the plane or toward the reader.
Consider `Cc1cc(-n2nc3c(c2-n2ccn(-c4ccc5c(cnn5C)c4F)c2=O)[C@H]2CC[C@@H](C3)N2C(=O)c2cc3cc([C@H]4CCOC(C)(C)C4)ccc3n2[C@@]2(c3noc(=O)[nH]3)C[C@@H]2C)cc(C)c1F` [Compound 35, 3-((1S,2S)-1-(5-((S)-2,2-dimethyltetrahydro-2H-pyran-4-yl)-2-((4R,7S)-3-(3-(4-fluoro-1-methyl-1H-indazol-5-yl)-2-oxo-2,3-dihydro-1H-imidazol-1-yl)-2-(4-fluoro-3,5-dimethylphenyl)-2,4,5,6,7,8-hexahydro-4,7-epiminocyclohepta [c]pyrazole-9-carbonyl)-1H-indol-1-yl)-2-methylcyclopropyl)-1,2,4-oxadiazol-5 (4H)-one], for which the potency entry is “little or no potency”.
